# Results: patent publication US8541588B2, “Sulfonamide derivatives” (Pfizer Limited, priority 2009, dated 2013)
# Biological target: T1, Nav1.7 (or SCN9A) channel; HEK cells stably transfected with hSCN9A (Homo sapiens, UniProt Q15858)
# T1 construct: expressed in transfected cells
# Assay: Nav1.7 block, PatchXpress 7000 automated whole-cell voltage clamp, estimated IC50 (EIC50)
# Assay type: cell-based
# Details: estimated IC50; hSCN9A HEK cells, PatchXpress platform; Examples 815-1040
# T1 sequence (Q15858 whole entry): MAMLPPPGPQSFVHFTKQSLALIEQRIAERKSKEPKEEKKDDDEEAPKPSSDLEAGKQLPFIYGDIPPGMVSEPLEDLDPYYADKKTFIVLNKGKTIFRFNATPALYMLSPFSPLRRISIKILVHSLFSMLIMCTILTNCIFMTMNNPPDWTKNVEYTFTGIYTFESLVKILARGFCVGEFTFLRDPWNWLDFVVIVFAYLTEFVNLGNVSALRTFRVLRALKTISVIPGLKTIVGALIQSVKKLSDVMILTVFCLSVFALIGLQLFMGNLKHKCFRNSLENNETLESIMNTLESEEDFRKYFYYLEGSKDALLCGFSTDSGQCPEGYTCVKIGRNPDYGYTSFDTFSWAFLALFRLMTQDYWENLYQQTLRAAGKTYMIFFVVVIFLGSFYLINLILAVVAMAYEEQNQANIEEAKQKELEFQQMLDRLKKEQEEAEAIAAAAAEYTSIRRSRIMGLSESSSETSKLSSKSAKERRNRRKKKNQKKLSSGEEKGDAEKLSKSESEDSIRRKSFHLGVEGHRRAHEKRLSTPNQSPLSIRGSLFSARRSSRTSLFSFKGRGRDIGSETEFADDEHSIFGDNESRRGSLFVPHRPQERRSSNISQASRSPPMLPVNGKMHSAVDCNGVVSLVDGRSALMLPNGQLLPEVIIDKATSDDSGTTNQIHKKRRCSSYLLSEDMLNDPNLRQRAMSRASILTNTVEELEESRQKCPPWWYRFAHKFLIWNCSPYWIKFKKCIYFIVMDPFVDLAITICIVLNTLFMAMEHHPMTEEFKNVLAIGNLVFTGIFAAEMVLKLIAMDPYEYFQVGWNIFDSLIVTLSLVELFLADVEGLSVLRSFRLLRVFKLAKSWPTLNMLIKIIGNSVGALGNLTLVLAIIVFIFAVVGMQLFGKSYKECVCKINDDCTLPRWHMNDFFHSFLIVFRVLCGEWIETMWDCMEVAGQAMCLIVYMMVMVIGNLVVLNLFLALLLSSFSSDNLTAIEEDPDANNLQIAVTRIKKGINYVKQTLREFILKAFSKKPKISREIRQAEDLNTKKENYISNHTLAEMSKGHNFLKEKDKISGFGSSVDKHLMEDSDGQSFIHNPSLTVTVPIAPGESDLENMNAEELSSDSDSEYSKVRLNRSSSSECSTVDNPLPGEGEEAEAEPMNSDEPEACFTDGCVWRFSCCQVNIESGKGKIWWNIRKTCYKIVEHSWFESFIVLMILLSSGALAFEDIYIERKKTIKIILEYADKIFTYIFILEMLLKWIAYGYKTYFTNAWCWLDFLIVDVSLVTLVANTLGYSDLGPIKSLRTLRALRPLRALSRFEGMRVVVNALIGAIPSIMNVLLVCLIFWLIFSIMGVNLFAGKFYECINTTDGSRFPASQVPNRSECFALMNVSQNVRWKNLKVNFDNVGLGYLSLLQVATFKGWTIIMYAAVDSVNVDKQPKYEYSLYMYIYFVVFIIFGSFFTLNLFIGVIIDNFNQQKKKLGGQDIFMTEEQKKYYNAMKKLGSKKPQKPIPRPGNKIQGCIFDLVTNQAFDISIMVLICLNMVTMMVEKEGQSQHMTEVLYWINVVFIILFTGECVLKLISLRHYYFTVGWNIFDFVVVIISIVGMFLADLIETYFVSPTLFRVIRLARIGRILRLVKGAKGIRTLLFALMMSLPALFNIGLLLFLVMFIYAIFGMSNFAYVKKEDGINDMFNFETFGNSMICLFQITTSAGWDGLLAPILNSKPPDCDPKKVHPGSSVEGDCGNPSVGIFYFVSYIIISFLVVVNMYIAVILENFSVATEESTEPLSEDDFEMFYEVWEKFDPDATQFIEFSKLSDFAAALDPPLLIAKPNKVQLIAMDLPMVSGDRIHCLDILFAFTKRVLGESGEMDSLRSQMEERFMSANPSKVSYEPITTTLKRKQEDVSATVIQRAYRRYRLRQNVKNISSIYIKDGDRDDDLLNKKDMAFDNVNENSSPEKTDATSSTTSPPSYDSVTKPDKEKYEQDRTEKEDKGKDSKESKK
row,Compound,IC50 [µM]
1,"N#Cc1cc(S(=O)(=O)Nc2nncs2)ccc1Oc1ccc(Cl)cc1-c1ccnc(N2CCC2)c1 [Example 919, 4-[2-(2-azetidin-1-ylpyridin-4-yl)-4-chlorophenoxy]-3-cyano-N-1,3,4-thiadiazol-2-ylbenzenesulfonamide]",0.024
2,"O=S(=O)(Nc1ncns1)c1cc(F)c(Oc2ccc(C(F)(F)F)cc2-c2cccnn2)cc1F [Example 920, 2,5-difluoro-4-[2-pyridazin-3-yl-4-(trifluoromethyl)phenoxy]-N-1,2,4-thiadiazol-5-ylbenzenesulfonamide]",0.31
3,"Cn1nccc1-c1cc(Cl)ccc1Oc1ccc(S(=O)(=O)Nc2cnsn2)cc1C#N [Example 921, 4-[4-chloro-2-(1-methyl-1H-pyrazol-5-yl)phenoxy]-3-cyano-N-1,2,5-thiadiazol-3-ylbenzenesulfonamide]",3.9
4,"Cn1nccc1-c1cc(Cl)ccc1Oc1ccc(S(=O)(=O)Nc2cc[nH]n2)cc1C#N [Example 922, 4-[4-chloro-2-(1-methyl-1H-pyrazol-5-yl)phenoxy]-3-cyano-N-1H-pyrazol-3-ylbenzenesulfonamide]",>10
5,"Cn1nccc1-c1cc(Cl)ccc1Oc1ccc(S(=O)(=O)Nc2cccnc2)cc1C#N [Example 923, 4-[4-chloro-2-(1-methyl-1H-pyrazol-5-yl)phenoxy]-3-cyano-N-pyridin-3-ylbenzenesulfonamide]",>10
6,"N#Cc1cc(S(=O)(=O)Nc2ncns2)ccc1Oc1cc(F)c(Cl)cc1-c1ccnnc1 [Example 924, 4-(4-chloro-5-fluoro-2-pyridazin-4-ylphenoxy)-3-cyano-N-1,2,4-thiadiazol-5-ylbenzenesulfonamide]",0.019
7,"N#Cc1ccc(Oc2cc(F)c(S(=O)(=O)Nc3nncs3)cc2Cl)c(-c2ccnnc2)c1 [Example 925, 5-chloro-4-(4-cyano-2-pyridazin-4-ylphenoxy)-2-fluoro-N-1,3,4-thiadiazol-2-ylbenzenesulfonamide]",0.66
8,"Nc1cc(-c2cc(Cl)ccc2Oc2cc(F)c(S(=O)(=O)Nc3ncccn3)cc2Cl)ccn1 [Example 926, 4-[2-(2-aminopyridin-4-yl)-4-chlorophenoxy]-5-chloro-2-fluoro-N-pyrimidin-2-ylbenzenesulfonamide]",0.067
9,"Cn1nccc1-c1cc(Cl)ccc1Oc1ncc(S(=O)(=O)Nc2ncns2)cc1Cl [Example 927, 5-chloro-6-[4-chloro-2-(1-methyl-1H-pyrazol-5-yl)phenoxy]-N-1,2,4-thiadiazol-5-ylpyridine-3-sulfonamide]",0.12
10,"O=S(=O)(Nc1ncns1)c1ccc(Oc2ccc(C(F)(F)F)cc2-c2ccnnc2)c(Cl)c1 [Example 928, 3-chloro-4-[2-pyridazin-4-yl-4-(trifluoromethyl)phenoxy]-N-1,2,4-thiadiazol-5-ylbenzenesulfonamide]",0.0036
11,"O=S(=O)(Nc1ncns1)c1ccc(Oc2ccc(C(F)(F)F)cc2-c2ccnnc2)c(F)c1 [Example 929, 3-fluoro-4-[2-pyridazin-4-yl-4-(trifluoromethyl)phenoxy]-N-1,2,4-thiadiazol-5-ylbenzenesulfonamide]",0.1
12,"O=S(=O)(Nc1ncns1)c1ccc(Oc2cc(F)c(Cl)cc2-c2ccnnc2)c(F)c1 [Example 930, 4-(4-chloro-5-fluoro-2-pyridazin-4-ylphenoxy)-3-fluoro-N-1,2,4-thiadiazol-5-ylbenzenesulfonamide]",0.23
13,"O=S(=O)(Nc1ncns1)c1cc(F)c(Oc2ccc(F)cc2-c2ccnnc2)cc1F [Example 931, 2,5-difluoro-4-(4-fluoro-2-pyridazin-4-ylphenoxy)-N-1,2,4-thiadiazol-5-ylbenzenesulfonamide]",0.14
14,"O=S(=O)(Nc1nncs1)c1cc(Cl)c(Oc2ccc(OC(F)(F)F)cc2-c2ccnnc2)cc1F [Example 932, 5-chloro-2-fluoro-4-[2-pyridazin-4-yl-4-(trifluoromethoxy)phenoxy]-N-1,3,4-thiadiazol-2-ylbenzenesulfonamide]",0.075
15,"N#Cc1cc(S(=O)(=O)Nc2nncs2)ccc1Oc1ccc(OC(F)(F)F)cc1-c1ccnnc1 [Example 933, 3-cyano-4-[2-pyridazin-4-yl-4-(trifluoromethoxy)phenoxy]-N-1,3,4-thiadiazol-2-ylbenzenesulfonamide]",>0.1
16,"O=S(=O)(Nc1ncns1)c1ccc(Oc2cc(Cl)c(F)cc2-c2ccnnc2)c(F)c1 [Example 934, 4-(5-chloro-4-fluoro-2-pyridazin-4-ylphenoxy)-3-fluoro-N-1,2,4-thiadiazol-5-ylbenzenesulfonamide]",0.053
17,"N#Cc1cc(S(=O)(=O)Nc2ncns2)ccc1Oc1ccc(C(F)(F)F)cc1-c1ccnn1C1CNC1 [Example 935, 4-[2-(1-azetidin-3-yl-1H-pyrazol-5-yl)-4-(trifluoromethyl)phenoxy]-3-cyano-N-1,2,4-thiadiazol-5-ylbenzenesulfonamide]",0.0038
18,"O=S(=O)(Nc1ncns1)c1cc(F)c(Oc2cc(F)c(Cl)cc2-c2ccnnc2)cc1F [Example 936, 4-(4-chloro-5-fluoro-2-pyridazin-4-ylphenoxy)-2,5-difluoro-N-1,2,4-thiadiazol-5-ylbenzenesulfonamide]",0.008
19,"O=S(=O)(Nc1ncns1)c1cc(F)c(Oc2cc(Cl)c(F)cc2-c2ccnnc2)cc1F [Example 937, 4-(5-chloro-4-fluoro-2-pyridazin-4-ylphenoxy)-2,5-difluoro-N-1,2,4-thiadiazol-5-ylbenzenesulfonamide]",0.019
20,"N#Cc1cc(S(=O)(=O)Nc2ncns2)ccc1Oc1cc(Cl)c(F)cc1-c1ccnnc1 [Example 938, 4-(5-chloro-4-fluoro-2-pyridazin-4-ylphenoxy)-3-cyano-N-1,2,4-thiadiazol-5-ylbenzenesulfonamide]",0.025
21,"O=S(=O)(Nc1nncs1)c1cc(Cl)c(Oc2cc(C(F)(F)F)ccc2-c2ccnnc2)cc1F [Example 939, 5-chloro-2-fluoro-4-[2-pyridazin-4-yl-5-(trifluoromethyl)phenoxy]-N-1,3,4-thiadiazol-2-ylbenzenesulfonamide]",0.048
22,"N#Cc1cc(S(=O)(=O)Nc2ncns2)ccc1Oc1cc(C(F)(F)F)ccc1-c1ccnnc1 [Example 940, 3-cyano-4-[2-pyridazin-4-yl-5-(trifluoromethyl)phenoxy]-N-1,2,4-thiadiazol-5-ylbenzenesulfonamide]",0.031
23,"O=S(=O)(Nc1ncccn1)c1cc(Cl)c(Oc2ccc(Cl)cc2-c2ccnnc2)cc1F [Example 941, 5-chloro-4-(4-chloro-2-pyridazin-4-ylphenoxy)-2-fluoro-N-pyrimidin-2-ylbenzenesulfonamide]",0.072
24,"O=S(=O)(Nc1nncs1)c1ccc(Oc2ccc(OC(F)(F)F)cc2-c2ccnnc2)c(Cl)c1 [Example 942, 3-chloro-4-[2-pyridazin-4-yl-4-(trifluoromethoxy)phenoxy]-N-1,3,4-thiadiazol-2-ylbenzenesulfonamide]",0.035
25,"Cc1cc(S(=O)(=O)Nc2nncs2)c(F)cc1Oc1ccc(Cl)cc1-c1ccnnc1 [Example 943, 4-(4-chloro-2-pyridazin-4-ylphenoxy)-2-fluoro-5-methyl-N-1,3,4-thiadiazol-2-ylbenzenesulfonamide]",0.077
26,"Nc1cc(-c2cc(Cl)ccc2Oc2ccc(S(=O)(=O)Nc3ccncn3)cc2Cl)ccn1 [Example 944, 4-[2-(2-aminopyridin-4-yl)-4-chlorophenoxy]-3-chloro-N-pyrimidin-4-ylbenzenesulfonamide]",0.031
